Results reported in ChEMBL document CHEMBL1201862, “PubChem BioAssay data set” (2004).
The source made the active and inactive calls.

What was measured:
Assay type in all cases: functional
[1] = molecular target: Serine/threonine-protein kinase PAK 4 (Homo sapiens, UniProt O96013);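 further: value obtained within a kinome profiling panel in which PAK4 was one of the panel members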
[2] = molecular target: Macrophage-stimulating protein receptor (Homo sapiens, UniProt Q04912); assay: Navigating the Kinome. Panel member name: MST1R
[3] = molecular target: Dual specificity mitogen-activated protein kinase kinase 1 (Homo sapiens, UniProt Q02750); assay: Navigating the Kinome. Panel member name: MAP2K1
[4] = molecular target: Dual specificity mitogen-activated protein kinase kinase 2 (Homo sapiens, UniProt P36507); assay: Navigating the Kinome. Panel member name: MAP2K2
[5] = molecular target: Cyclin-dependent kinase 7 (Homo sapiens, UniProt P50613);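 further: value comes from a kinome-wide kinase profiling panel in which CDK7 is one member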
[6] = molecular target: Proto-oncogene tyrosine-protein kinase receptor Ret (Homo sapiens, UniProt P07949);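 further: measured within a kinome-wide profiling panel, RET as the panel member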
[7] = molecular target: G protein-coupled receptor kinase 5 (Homo sapiens, UniProt P34947); assay: Navigating the Kinome. Panel member name: GPRK5
[8] = molecular target: Protein kinase C theta type (Homo sapiens, UniProt Q04759); assay: Navigating the Kinome. Panel member name: PRKCQ
[9] = molecular target: Macrophage colony-stimulating factor 1 receptor (Homo sapiens, UniProt P07333);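 further: value comes from the Navigating the Kinome screening panel, CSF1R member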
[10] = molecular target: Platelet-derived growth factor receptor alpha (Homo sapiens, UniProt P16234); assay: Navigating the Kinome. Panel member name: PDGFRA
[11] = molecular target: ALK tyrosine kinase receptor (Homo sapiens, UniProt Q9UM73);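 further: ALK tested as one member of a kinase panel screen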
[12] = molecular target: Tyrosine-protein kinase BTK (Homo sapiens, UniProt Q06187)
[13] = molecular target: Tyrosine-protein kinase Fyn (Homo sapiens, UniProt P06241)
[14] = molecular target: Serine/threonine-protein kinase pim-1 (Homo sapiens, UniProt P11309)
[15] = molecular target: T1, Aurora kinase A (Homo sapiens, UniProt O14965);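 further: value from the Navigating the Kinome kinase panel profiling, panel entry STK6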
T1 sequence (O14965 whole entry): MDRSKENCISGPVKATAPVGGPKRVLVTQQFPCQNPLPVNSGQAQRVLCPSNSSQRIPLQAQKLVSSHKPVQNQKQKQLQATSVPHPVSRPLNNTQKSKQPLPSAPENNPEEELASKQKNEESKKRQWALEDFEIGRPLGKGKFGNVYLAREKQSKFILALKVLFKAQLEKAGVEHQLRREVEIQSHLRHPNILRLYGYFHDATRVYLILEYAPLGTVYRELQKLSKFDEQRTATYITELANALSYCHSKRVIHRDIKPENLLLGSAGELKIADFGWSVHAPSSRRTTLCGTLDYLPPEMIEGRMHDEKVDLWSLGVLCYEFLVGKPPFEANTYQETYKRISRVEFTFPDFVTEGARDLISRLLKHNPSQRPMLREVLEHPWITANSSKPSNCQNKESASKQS

[16] = molecular target: T2, Serine/threonine-protein kinase D3 (Homo sapiens, UniProt O94806);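 further: determined within a kinase panel screen, with PRKCN as the panel member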
T2 sequence (O94806 whole entry): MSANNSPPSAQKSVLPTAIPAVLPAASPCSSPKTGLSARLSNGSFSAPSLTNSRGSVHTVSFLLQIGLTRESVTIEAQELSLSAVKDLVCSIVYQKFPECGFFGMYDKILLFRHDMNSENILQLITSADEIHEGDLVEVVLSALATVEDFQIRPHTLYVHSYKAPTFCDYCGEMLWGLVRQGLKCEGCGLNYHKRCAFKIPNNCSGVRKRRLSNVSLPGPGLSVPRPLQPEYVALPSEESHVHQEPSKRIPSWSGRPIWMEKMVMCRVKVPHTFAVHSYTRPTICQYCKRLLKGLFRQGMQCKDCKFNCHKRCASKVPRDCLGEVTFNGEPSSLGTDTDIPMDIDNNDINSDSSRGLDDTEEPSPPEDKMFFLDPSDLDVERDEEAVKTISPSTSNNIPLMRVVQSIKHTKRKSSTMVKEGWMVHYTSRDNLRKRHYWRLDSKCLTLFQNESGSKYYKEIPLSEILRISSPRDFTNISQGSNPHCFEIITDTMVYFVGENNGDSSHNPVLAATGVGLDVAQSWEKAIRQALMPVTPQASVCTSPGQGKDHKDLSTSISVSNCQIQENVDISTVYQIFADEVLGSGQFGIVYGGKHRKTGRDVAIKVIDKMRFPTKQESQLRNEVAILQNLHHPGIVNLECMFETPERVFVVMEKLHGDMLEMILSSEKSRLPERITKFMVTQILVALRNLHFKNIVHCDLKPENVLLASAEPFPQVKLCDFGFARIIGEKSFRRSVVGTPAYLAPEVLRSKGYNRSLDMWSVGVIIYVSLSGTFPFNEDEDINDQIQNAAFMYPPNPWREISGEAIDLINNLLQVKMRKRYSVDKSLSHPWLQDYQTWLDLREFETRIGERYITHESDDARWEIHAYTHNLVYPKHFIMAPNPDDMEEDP

[17] = molecular target: cAMP-dependent protein kinase catalytic subunit alpha (Homo sapiens, UniProt P17612)
[18] = molecular target: Fibroblast growth factor receptor 1 (Homo sapiens, UniProt P11362)
[19] = molecular target: Leucine-rich repeat serine/threonine-protein kinase 2 (Homo sapiens, UniProt Q5S007);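 further: value from a broad kinome-wide panel profiling study in which LRRK2 was one of the kinases tested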
[20] = molecular target: T3, cAMP-dependent protein kinase catalytic subunit PRKX (Homo sapiens, UniProt P51817)
T3 sequence (P51817 whole entry): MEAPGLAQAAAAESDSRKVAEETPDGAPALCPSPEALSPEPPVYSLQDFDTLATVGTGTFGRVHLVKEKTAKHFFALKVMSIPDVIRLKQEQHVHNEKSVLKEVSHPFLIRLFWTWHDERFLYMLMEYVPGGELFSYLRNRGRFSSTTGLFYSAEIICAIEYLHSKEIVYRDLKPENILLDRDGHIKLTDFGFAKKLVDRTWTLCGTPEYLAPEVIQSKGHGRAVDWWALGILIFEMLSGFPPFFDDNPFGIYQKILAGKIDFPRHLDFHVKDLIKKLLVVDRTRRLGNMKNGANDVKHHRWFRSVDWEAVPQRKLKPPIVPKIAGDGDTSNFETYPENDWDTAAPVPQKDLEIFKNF

[21] = molecular target: Cyclin-dependent kinase 8 (Homo sapiens, UniProt P49336); assay: Navigating the Kinome. Panel member name: CDK8
[22] = molecular target: 5'-AMP-activated protein kinase catalytic subunit alpha-1 (Homo sapiens, UniProt Q13131)
[23] = molecular target: Vascular endothelial growth factor receptor 1 (Homo sapiens, UniProt P17948);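 further: measured within a kinome-wide profiling panel, FLT1 as the panel member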
[24] = molecular target: Dual specificity tyrosine-phosphorylation-regulated kinase 1A (Homo sapiens, UniProt Q13627);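 further: measured against DYRK1A as one member of a broad kinome profiling panel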

Macrophage colony-stimulating factor 1 receptor, sequence (P07333 whole entry): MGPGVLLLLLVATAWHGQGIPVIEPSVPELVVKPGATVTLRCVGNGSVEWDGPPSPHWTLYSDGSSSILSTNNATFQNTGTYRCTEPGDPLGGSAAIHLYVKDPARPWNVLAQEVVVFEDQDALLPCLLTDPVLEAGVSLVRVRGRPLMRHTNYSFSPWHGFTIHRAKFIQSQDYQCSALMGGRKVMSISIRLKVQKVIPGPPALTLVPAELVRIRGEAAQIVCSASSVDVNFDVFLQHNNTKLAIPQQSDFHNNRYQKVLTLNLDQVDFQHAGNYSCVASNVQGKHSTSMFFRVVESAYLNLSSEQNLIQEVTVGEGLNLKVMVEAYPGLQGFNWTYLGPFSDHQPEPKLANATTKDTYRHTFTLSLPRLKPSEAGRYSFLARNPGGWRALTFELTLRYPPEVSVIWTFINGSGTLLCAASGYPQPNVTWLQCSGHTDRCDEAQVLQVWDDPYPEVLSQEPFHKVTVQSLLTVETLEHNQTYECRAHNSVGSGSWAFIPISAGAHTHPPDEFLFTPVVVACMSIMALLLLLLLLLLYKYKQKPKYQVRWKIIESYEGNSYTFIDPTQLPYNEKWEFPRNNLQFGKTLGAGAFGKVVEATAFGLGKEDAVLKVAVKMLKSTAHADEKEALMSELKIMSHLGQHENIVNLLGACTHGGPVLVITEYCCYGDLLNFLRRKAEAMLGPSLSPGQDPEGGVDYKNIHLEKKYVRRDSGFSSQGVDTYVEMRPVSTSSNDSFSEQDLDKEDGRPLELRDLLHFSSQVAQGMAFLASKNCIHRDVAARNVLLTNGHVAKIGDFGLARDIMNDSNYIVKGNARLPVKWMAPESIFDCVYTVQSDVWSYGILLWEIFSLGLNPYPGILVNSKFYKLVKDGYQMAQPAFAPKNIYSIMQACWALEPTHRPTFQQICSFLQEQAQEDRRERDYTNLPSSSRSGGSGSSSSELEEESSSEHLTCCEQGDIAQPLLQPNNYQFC
Fibroblast growth factor receptor 1, sequence (P11362 whole entry): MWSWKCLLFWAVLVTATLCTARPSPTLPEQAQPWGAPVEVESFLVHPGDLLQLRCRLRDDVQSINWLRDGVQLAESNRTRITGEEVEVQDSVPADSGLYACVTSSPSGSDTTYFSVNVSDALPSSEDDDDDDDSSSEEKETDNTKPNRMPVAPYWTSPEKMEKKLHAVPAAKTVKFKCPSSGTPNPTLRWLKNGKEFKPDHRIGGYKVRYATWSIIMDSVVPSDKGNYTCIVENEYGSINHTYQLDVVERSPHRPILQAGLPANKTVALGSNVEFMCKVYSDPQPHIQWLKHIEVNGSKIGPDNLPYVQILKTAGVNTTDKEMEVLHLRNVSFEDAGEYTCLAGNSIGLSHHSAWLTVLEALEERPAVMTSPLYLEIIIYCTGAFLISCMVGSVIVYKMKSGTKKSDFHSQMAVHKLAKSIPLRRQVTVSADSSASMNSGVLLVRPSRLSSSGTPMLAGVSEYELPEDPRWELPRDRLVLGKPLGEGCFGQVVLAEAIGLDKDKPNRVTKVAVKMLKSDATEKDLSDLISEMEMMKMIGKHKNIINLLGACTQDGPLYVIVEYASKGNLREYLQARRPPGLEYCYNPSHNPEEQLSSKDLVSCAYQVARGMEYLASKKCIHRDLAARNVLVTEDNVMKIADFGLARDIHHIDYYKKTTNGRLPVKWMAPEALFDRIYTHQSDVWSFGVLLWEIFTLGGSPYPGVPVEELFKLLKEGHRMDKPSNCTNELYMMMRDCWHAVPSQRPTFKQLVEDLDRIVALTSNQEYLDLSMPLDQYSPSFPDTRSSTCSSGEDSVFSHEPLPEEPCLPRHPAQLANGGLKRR
Macrophage-stimulating protein receptor, sequence (Q04912 25-304 limits assumed): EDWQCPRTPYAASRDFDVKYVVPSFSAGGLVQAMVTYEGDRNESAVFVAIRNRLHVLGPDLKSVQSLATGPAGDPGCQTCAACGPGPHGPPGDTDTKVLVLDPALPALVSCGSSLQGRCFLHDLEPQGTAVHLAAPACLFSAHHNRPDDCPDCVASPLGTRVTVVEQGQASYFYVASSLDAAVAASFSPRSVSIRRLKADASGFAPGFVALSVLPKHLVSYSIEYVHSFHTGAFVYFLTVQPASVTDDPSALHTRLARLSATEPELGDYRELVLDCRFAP
Macrophage-stimulating protein receptor, sequence (Q04912 310-1400 limits assumed): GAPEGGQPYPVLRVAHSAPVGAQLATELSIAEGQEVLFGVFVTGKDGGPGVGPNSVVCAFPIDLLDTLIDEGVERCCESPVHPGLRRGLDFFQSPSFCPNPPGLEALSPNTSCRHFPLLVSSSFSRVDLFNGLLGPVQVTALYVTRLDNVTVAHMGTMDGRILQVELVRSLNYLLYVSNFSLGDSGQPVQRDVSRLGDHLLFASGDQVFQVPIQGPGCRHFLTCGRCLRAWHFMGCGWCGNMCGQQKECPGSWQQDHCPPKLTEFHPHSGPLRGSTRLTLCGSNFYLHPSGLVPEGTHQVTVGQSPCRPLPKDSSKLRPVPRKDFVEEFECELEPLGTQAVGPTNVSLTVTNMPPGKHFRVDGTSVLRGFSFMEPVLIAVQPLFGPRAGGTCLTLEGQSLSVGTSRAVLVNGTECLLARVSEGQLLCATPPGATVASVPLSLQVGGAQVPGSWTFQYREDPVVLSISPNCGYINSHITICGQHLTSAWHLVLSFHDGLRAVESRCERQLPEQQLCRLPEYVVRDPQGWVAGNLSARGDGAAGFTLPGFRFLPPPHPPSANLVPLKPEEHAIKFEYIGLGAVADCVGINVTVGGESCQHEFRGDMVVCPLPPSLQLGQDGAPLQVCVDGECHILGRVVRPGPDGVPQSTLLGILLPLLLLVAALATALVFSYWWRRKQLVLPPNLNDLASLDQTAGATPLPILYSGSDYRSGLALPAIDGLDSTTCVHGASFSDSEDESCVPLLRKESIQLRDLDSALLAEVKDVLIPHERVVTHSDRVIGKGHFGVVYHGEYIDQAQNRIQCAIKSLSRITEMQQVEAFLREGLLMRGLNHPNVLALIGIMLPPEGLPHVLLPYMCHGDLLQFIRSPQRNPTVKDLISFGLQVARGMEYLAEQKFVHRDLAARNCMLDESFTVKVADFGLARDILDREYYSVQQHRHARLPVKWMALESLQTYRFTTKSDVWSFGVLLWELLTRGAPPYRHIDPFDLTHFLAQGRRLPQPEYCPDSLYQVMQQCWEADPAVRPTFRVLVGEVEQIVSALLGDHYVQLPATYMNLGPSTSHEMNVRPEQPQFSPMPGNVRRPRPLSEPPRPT
Protein kinase C theta type, sequence (Q04759 whole entry): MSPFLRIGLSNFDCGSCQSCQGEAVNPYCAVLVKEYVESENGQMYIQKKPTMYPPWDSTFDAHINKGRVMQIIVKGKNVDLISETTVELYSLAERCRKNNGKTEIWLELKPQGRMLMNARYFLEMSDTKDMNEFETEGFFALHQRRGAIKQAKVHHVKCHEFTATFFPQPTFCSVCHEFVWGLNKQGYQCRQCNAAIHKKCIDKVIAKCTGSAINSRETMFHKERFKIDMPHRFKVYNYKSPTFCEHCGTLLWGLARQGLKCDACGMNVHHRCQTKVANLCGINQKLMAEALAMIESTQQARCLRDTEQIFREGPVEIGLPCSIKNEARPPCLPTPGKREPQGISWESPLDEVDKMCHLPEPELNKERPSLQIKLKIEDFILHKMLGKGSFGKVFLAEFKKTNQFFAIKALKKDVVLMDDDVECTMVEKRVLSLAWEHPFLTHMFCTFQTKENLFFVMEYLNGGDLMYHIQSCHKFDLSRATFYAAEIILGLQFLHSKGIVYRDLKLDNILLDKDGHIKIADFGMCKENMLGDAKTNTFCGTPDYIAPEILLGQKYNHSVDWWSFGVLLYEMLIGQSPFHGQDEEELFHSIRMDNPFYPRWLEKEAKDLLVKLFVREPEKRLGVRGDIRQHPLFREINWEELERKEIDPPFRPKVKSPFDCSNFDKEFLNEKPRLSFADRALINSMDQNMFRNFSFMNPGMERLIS
Cyclin-dependent kinase 7, sequence (P50613 whole entry): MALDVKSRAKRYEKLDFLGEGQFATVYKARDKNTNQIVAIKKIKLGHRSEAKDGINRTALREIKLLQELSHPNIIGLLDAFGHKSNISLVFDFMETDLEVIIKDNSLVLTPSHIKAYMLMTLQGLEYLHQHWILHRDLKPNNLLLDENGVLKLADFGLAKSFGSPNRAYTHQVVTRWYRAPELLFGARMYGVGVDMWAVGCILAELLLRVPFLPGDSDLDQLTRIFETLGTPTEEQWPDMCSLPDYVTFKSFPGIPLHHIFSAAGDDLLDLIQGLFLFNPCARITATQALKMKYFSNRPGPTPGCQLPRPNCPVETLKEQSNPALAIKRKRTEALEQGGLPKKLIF
5'-AMP-activated protein kinase catalytic subunit alpha-1, sequence (Q13131 whole entry): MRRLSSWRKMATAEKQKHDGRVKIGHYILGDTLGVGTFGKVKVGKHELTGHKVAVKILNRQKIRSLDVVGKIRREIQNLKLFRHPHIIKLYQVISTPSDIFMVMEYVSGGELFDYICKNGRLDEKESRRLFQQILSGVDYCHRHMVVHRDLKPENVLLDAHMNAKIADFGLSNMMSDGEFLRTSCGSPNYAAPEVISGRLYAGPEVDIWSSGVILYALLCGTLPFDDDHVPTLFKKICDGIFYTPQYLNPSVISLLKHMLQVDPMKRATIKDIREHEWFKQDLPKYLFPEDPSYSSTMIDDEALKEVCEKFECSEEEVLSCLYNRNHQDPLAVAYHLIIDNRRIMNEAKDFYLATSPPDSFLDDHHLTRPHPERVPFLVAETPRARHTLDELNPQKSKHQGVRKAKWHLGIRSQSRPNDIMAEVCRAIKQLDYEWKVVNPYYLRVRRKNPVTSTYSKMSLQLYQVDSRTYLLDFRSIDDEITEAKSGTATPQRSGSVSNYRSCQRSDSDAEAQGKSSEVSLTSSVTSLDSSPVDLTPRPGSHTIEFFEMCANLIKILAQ

Row | SMILES | Ki [1] | Ki [2] | Ki [3] | Ki [4] | Ki [5] | Ki [6] | Ki [7] | Ki [8] | Ki [9] | Ki [10] | Ki [11] | Ki [12] | Ki [13] | Ki [14] | Ki [15] | Ki [16] | Ki [17] | Ki [18] | Ki [19] | Ki [20] | also measured
1 | COc1cccc(C(C)NC(=O)c2sc(-c3ccncc3)nc2C)c1 (configuration not stated) | > 5.01 µM (inactive) | > 3.98 µM (inactive) | > 3.16 µM (inactive) | > 3.98 µM (inactive) | > 3.98 µM (inactive) | > 3.16 µM (inactive) | > 3.98 µM (inactive) | > 2.51 µM (inactive) | > 2.51 µM (inactive) | > 2.51 µM (inactive) | > 6.31 µM (inactive) | > 6.31 µM (inactive) | > 6.31 µM (inactive) | > 6.31 µM (inactive) | > 1.58 µM (inactive) | > 3.98 µM (inactive) | > 1.26 µM (inactive) | > 3.98 µM (inactive) | > 2.51 µM (inactive) | > 3.16 µM (inactive) | Ki [21]: > 3.98 µM (inactive); Ki [22]: > 3.16 µM (inactive); Ki [23]: > 3.98 µM (inactive); Ki [24]: > 2 µM (inactive)
2 | CCCCC(=O)Nc1cc(-c2c[nH]c3ncccc23)cc(Cl)n1 | > 5.01 µM (inactive) | > 3.98 µM (inactive) | > 3.16 µM (inactive) | > 3.98 µM (inactive) | > 3.98 µM (inactive) | > 3.16 µM (inactive) | > 3.98 µM (inactive) | > 2.51 µM (inactive) | > 2.51 µM (inactive) | > 2.51 µM (inactive) | > 6.31 µM (inactive) | > 6.31 µM (inactive) | > 6.31 µM (inactive) | > 6.31 µM (inactive) | > 1.58 µM (inactive) | > 3.98 µM (inactive) | 0.316 µM (active) | > 3.98 µM (inactive) | > 2.51 µM (inactive) | > 3.16 µM (inactive) | Ki [21]: 0.0158 µM (active); Ki [22]: > 3.16 µM (inactive); Ki [23]: > 3.98 µM (inactive); Ki [24]: 0.0398 µM (active)
3 | Oc1ccc(-c2nc(-c3ccncc3)c(-c3ccc(F)cc3)[nH]2)cc1 [SB-202190] | > 5.01 µM (inactive) | > 3.98 µM (inactive) | > 3.16 µM (inactive) | > 3.98 µM (inactive) | > 3.98 µM (inactive) | > 3.16 µM (inactive) | > 3.98 µM (inactive) | > 2.51 µM (inactive) | > 2 µM (inactive) | > 3.16 µM (inactive) | > 6.31 µM (inactive) | > 6.31 µM (inactive) | > 6.31 µM (inactive) | > 6.31 µM (inactive) | > 1.58 µM (inactive) | 2.51 µM (active) | 1 µM (active) | > 3.98 µM (inactive) | > 2.51 µM (inactive) | > 3.16 µM (inactive) | Ki [21]: > 3.98 µM (inactive); Ki [22]: > 3.16 µM (inactive); Ki [23]: > 3.98 µM (inactive); Ki [24]: > 2 µM (inactive)
